In patent publication US20010051630A1, “Use of hydroxylamine derivatives, and method and preparations for increasing the tolerance of field crops against weather stresses” (priority 1997, published 2001):
Marks after values point to notes of the source that are not given here.

Legend:
[1] = tested on: soybean cv. Bólyi 44; assay: Drought tolerance of soybeans; assay type: in vivo; conditions: 6 days hardening; 50 mg/liter in the water; 4 days without watering, one week regeneration
Protocol: Soybeans of soybean cv. Bólyi 44 were hardened for 6 days by withholding the water. This was followed by two days of watering, and the active agent was applied in the water. The concentration of the solution of the active agent was 50 mg/liter. After a 4-day-long cease of watering and a one week regeneration period, the number of surviving plants was recorded.
Watering was ceased for 10 days for a certain group of plants in the experiment. It was observed that almost every plant perished. Each of the 4 surviving plants had previously been treated with the active agent.

[2] = tested on: Mo 17 inbred maize line; assay: CSVT (Complex Stressing Vigour Test), seeds soaked in active agent, Mo 17 maize; assay type: in vivo; conditions: seeds soaked in 10 mg/l active agent, * = significant vs control P < 0.05
Protocol: (§1) In this experiment the tolerance of maize, soybean and pepper seeds treated with the active agent against cold was tested. This test imposed temperature and oxygen deficiency stresses on the seeds and was carried out according to Barla-Szabó and Dolinka CSVT (Complex Stressing Vigour Test). For a single test, two hundred seeds were soaked for 48 hours at 25° C. and another 48 hours at 5° C in 150 ml distilled water containing the active agent in 10 mg/l concentration. Following the 96 hours of soaking, the seeds were further germinated between rolled wet paper for 96 hours at 25° C. There were 25 seeds in each roll, the rolls were placed vertically into containers and covered with a plastic bag in order to reduce evaporation. During the whole procedure the seeds were kept in darkness. At the end of the experiment the number of normally developing and ungerminated seeds were recorded. The length of the normal seedlings was measured and the average length of the five longest seedlings was calculated. Seedlings longer than 0.33 times the average length of the five longest seedlings were considered to be of high vigour, and low vigour seedlings were shorter than this length.

[3] = tested on: soybean cv. Bólyi 44; assay: Field soybean cultivation, yield; assay type: in vivo
Protocol: The experiment was performed using soybean cv. Bólyi 44. Before sowing, the seeds were treated with Rhyzobium Japonicum nitrogen-binding bacterium, which forms a root nodule providing 50-70% of the nitrogen demand of the plant.
The examined compounds were applied by pearling the seeds; 1 ml of pearling agent containing 1 mg of active agent in a 5% aqueous PVA solution was used for 100 seeds.
The plants were sown after soil preparation in the autumn, using a crop rotation system, 3-5 cm deep in the ground, with a 45-50 cm row distance, a 5 cm plant distance and 450,000-500,000 plant/ha density. The date of sowing was Apr. 15, 1997. During the development of the plant, the usual cultivation procedures were followed and the usual pesticides were used. The harvest took place in September-October, with the water content of the grains being between 16-18%.

[4] = tested on: maize of low chilling tolerance (LT) population; assay: CSVT, maize population of low chilling tolerance (LT); assay type: in vivo
Protocol: as §1, with “darkness.” for “darkness. At the end of the experiment the number of normally developing and ungerminated seeds were recorded. The length of the normal seedlings was measured and the average length of the five longest seedlings was calculated. Seedlings longer than 0.33 times the average length of the five longest seedlings were considered to be of high vigour, and low vigour seedlings were shorter than this length.”
At the end of the experiment the number of normally developing and ungerminated seeds were recorded. The length of the normal seedlings was measured and the average length of the five longest seedlings was calculated. Seedlings longer than 0.33 times the average length of the five longest seedlings were considered to be of high vigour, and low vigour seedlings were shorter than this length.
In the case of a further experiment with maize of low chilling tolerance (LT) and high chilling tolerance (HT) populations [Ref: P. Landi, E. Frascaroli, A. Lovato; EUPHYTICA 64 21-29 (1992)], the following positive effects were found (Table 3.).

[5] = tested on: McCall soybeans; assay: CSVT with PVA-pearled McCall soybeans, relative length; assay type: in vivo, soybean; conditions: 2.5 mg in 1 ml 2.5% PVA per 100 seeds
Protocol: as §1, with “darkness.” for “darkness. At the end of the experiment the number of normally developing and ungerminated seeds were recorded. The length of the normal seedlings was measured and the average length of the five longest seedlings was calculated. Seedlings longer than 0.33 times the average length of the five longest seedlings were considered to be of high vigour, and low vigour seedlings were shorter than this length.”
In a further CSVT experiment also using McCall soybeans, polyvinylalcohol (PVA) was applied for pearling the seeds. The 2.5 mg doses of the active agents were dissolved in 1 ml of 2.5% PVA solution, and this quantity was applied to 100 pieces of seeds. The improvement of the chilling tolerance is observed by the significant elongation of the germ and the roots.

CC(C)(C)NCC(O)CONC(=O)c1cccc(C(F)(F)F)c1.Cl (stereo not shown) [Compound 1, N-[2-hydroxy-3-(1,1-dimethylethyl-amino)propoxy]-3-trifluoromethyl-benzamide monohydrochloride]
Survival (%) [1]: 25* %
Ratio of high vigour plants (%) [2]: 29* %
Weight of the crop (kg/m^2) ([3]; seeds pearled with 1 mg active agent in 1 ml 5% PVA per 100 seeds): 0.55 kg/m^2
Improvement compared to the control (%) ([3]; weight of the crop): 22.2%
Ratio of high vigour plants %, LT [4]: 94* %
Relative length (control = 100), germ [5]: 106
Relative length (control = 100), root [5]: 128
